According to US20200224136A1, “INTESTINE-CHIP: DIFFERENTIAL GENE EXPRESSION MODEL” (priority 2019, published 2020):
Where two headings read alike, the source gives them in different places.

Key:
mouse PXR (mPXR) = biological target: T1, mouse PXR (mPXR) (Mus musculus, UniProt O54915); settings: cited from earlier work
T1 sequence (O54915 1-431): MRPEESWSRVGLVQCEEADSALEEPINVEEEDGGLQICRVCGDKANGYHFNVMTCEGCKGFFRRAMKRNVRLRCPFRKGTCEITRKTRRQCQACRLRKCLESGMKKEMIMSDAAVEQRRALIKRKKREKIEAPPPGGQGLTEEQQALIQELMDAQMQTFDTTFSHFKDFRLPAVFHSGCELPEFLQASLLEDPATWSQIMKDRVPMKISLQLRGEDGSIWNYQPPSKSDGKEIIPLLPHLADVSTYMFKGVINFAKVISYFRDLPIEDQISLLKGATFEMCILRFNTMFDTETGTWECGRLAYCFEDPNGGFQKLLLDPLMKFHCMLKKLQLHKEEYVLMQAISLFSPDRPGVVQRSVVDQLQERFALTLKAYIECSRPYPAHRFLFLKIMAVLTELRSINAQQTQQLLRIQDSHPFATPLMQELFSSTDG

Colon Intestine-Chip = assay: Barrier disruption/rescue assay in organoid-derived Colon Intestine-Chip (apparent permeability, 3 kDa dextran); format: cell-based, human
Description: As one example, to evaluate the integrity of the intestinal barrier 3 kDa Cascade Blue dextran (Sigma, D7132) was added to the epithelial compartment of the Duodenum-Chip at 0.1 mg/ml on the day of connecting a microfluidic device to flow, e.g., see exemplary timelines. Effluents of the endothelial compartment were sampled 3 hours after the addition of a dye, up to 24 hours, up to 48 hours, up to 72 hours, or at 48 hour intervals until the end of the assay, in order to determine the concentration of dye that has diffused through the membrane.
The apparent paracellular permeability (Papp) was calculated based on a standard curve and using the following formula: […]
In some embodiments, a microfluidic device as described herein, is used for an in vitro assay for evaluating a substance for its ability or efficacy of ‘rescuing’ barrier function. In some embodiments, a human intestine chip is used for an in vitro assay for evaluating a substance for ‘rescuing’ barrier function. In some embodiments, a human intestine chip is an organoids-derived colonic intestine chip. In some embodiments, Organoids-derived Colonic Epithelial Cells are seeded into one channel with Intestinal Microvascular Endothelial Cells seeded into an opposing channel separated by a membrane, as described herein. After seeding cells on Day 0, flow was initiated on Day 1 with stretch initiated on Day 2.
The following is an exemplary timeline for one embodiment of a Barrier Disruption/Rescue Assay, e.g. rescuing 3 hours of injury by a peptide substance, e.g. AT1002 (synthetic peptide H-FCIGRL-OH of ZO toxin) with AT1001, larzaride acetate. Day −5: experiment preparation (prep), as described herein; Day 0: Intestine chip seeding both cells types, epithelial and endothelial; Day 1 starting flow; Day 2 starting stretch, in some embodiments starting […] at lower levels then increasing up to 10% over 24 hours (1 day), over 2 days, or over 3 days; Day 5; starting Injury/Rescue Assay: using a known reversible injury inducing substance: Injure period starting at 0 hour continuing up to 3 hours, or more. Day 6 first readout time point (24 hours); Day 7, in some embodiments, Fix cells at 48 hours post injury; Days 7-21, in some embodiments, initiate at least one Endpoint Assay for analysis; and in some embodiments Day 21 is a report-out of assay. Exemplary check timepoints for readouts: 0, 24 and 48 hours after initiation of injury inducing substance. In some embodiments, Endpoint Assays and Analysis are done on Day 14. In some embodiments, Endpoint Assays and Analysis are done on Day 21. In some embodiments, a test substance for ‘rescuing’ damage may be evaluated within 14 days. In some embodiments, a test substance for ‘rescuing’ damage may be evaluated within 21 days from the beginning of cell culturing. […]

Caco-2 cell monolayers = settings: cited from earlier work
MDR1 (P-gp) [1] = biological target: T2, MDR1 (P-gp) (Homo sapiens, UniProt P08183); settings: 22 μM
Description: (§1) To evaluate the applicability of this system for the studies of pharmacology related questions we assessed the presence and localization of major intestinal drug transporters in Duodenum-Chips established from the tissue of 3 different donors by qRT-PCR and immunofluorescent imaging.
(§2) The transporter activity of MDR-1/P-gp was assessed using the MDR1 Efflux Assay Kit (e.g., ECM910, Millipore), as per manufacturer's instructions. […] Intracellular accumulation of dye, was detected by fluorescent imaging (Olympus IX83) and measured in the presence and absence of MDR-1 specific inhibitor vinblastine (22 μM). At least three independent experiments were performed for Caco2 Intestine-Chips and Duodenum-Chips, each using chips established from a different donor of biopsy-derived organoids. At least three different chips were used per condition, images of each were taken at three different fields of view, digitally processed and quantified using Fiji software.

MDR1 (P-gp) [2] = biological target: T2, MDR1 (P-gp); settings: 22 μM; remark: listed apart in the source
Description: as §1, §2

human PXR (hPXR) = biological target: T3, human PXR (hPXR) (Homo sapiens, UniProt O75469); settings: cited from earlier work
T3 sequence (O75469 1-434): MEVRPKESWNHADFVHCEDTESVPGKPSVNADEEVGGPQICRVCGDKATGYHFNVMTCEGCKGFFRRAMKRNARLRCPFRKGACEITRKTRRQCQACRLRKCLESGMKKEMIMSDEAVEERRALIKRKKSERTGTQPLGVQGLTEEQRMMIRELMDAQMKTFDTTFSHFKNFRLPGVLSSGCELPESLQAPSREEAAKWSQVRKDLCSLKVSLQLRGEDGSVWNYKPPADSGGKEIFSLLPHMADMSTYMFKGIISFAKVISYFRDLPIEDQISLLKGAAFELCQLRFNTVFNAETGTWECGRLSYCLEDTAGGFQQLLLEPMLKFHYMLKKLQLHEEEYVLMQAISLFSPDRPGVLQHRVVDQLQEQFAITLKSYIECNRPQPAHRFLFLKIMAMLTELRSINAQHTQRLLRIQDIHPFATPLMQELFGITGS

mouse CAR (mCAR) = biological target: T4, mouse CAR (mCAR) (Mus musculus, UniProt O35627); settings: cited from earlier work
T4 sequence (O35627 1-358): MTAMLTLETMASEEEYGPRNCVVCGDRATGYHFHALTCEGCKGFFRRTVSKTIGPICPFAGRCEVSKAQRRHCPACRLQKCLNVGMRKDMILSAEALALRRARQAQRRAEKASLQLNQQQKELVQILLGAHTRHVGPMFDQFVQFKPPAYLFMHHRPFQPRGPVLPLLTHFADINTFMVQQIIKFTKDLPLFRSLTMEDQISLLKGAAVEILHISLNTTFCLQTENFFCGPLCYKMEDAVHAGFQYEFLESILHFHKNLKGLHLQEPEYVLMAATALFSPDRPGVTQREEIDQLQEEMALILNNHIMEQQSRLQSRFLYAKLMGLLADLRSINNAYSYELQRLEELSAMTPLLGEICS

human CAR (hCAR) = biological target: T5, human CAR (hCAR) (Homo sapiens, UniProt Q14994); settings: cited from earlier work
T5 sequence (Q14994 1-352): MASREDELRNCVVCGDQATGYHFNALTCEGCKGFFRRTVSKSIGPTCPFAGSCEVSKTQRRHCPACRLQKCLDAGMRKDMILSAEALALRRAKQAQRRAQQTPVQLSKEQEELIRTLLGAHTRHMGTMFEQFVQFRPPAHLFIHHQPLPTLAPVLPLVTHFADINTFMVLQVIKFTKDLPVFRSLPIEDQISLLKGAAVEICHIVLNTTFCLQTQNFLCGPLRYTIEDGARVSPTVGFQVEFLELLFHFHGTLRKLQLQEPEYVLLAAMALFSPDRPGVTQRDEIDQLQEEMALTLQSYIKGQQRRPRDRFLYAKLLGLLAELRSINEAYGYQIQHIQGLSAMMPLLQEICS

Colon-Chip = assay: IL-13 mediated enrichment of tuft cells in Colon-Chip; format: cell-based, human; settings: 10 ng/ml
Description: Stimulation: Exposure of Colon-Chips and ileal and colonic organoids (serve as a control) to 10 ng/ml of IL-13.
Read-outs: mRNA expression of genes specific for Tuft cells: Trpm5, ChAT, Dclkl and for goblet cells: Muc2, TFF3, etc., (to assess concomitant expansion of goblet cell populations) at day 2, 3 and 6 post-treatment corresponding to day 4, 5 and 8 of Colon-Chip culture.
IL-13 treatment has no negative impact of Colon-Chip tissue morphology and barrier function.
Summary of IL-13 mediated enrichment of the tuft cells in Colon-Chip. […] We performed stimulation of Colon-Chips with IL-13 in order to drive tuft cell differentiation and enrich for the presence of these cells in Intestine-Chip platform. […] In some embodiments, Gene expression levels of Tuft cell (Trpm5, ChAT) and goblet cell (Muc2, TFF3) specific markers are evaluated.

[3] = tested on: Mixed primary murine intestinal cultures; settings: 3 uM, 2 hours, GLP-1 active ELISA kit, Millipore, cited from earlier work
CYP3A4 [4] = tested on: CYP3A4
CYP3A4 [5] = tested on: CYP3A4; remark: listed apart in the source

T2 sequence (P08183 whole entry): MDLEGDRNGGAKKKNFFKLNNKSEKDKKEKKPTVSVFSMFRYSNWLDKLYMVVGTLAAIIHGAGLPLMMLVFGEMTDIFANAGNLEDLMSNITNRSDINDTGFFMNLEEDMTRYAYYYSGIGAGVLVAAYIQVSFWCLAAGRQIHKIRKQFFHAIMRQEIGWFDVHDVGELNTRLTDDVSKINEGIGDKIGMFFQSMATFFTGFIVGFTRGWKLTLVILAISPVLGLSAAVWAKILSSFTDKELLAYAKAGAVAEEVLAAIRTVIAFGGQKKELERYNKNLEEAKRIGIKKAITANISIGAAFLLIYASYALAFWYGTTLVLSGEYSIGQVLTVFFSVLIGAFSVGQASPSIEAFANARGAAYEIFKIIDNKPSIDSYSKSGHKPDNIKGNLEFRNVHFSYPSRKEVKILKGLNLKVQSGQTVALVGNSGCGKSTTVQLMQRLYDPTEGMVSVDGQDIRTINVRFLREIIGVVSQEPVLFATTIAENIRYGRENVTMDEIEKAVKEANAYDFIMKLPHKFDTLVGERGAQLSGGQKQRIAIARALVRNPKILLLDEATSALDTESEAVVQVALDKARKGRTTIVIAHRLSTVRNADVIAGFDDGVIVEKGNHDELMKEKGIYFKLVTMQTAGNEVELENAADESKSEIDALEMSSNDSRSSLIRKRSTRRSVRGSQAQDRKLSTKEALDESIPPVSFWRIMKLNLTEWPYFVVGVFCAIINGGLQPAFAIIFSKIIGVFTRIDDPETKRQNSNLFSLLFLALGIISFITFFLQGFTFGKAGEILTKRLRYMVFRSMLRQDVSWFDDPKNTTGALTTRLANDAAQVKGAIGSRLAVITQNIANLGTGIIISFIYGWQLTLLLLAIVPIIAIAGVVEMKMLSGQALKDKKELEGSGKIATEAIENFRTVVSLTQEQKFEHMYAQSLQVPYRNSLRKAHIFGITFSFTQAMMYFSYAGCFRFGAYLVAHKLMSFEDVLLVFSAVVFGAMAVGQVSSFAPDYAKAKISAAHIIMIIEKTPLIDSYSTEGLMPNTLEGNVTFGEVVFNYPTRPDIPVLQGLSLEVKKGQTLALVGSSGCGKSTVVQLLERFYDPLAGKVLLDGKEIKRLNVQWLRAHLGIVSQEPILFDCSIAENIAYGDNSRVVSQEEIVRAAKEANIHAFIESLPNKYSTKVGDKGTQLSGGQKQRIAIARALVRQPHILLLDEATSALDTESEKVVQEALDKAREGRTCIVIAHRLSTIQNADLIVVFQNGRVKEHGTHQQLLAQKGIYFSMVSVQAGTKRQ

CCOP(=O)(OCC)C(=Cc1cc(C(C)(C)C)c(O)c(C(C)(C)C)c1)P(=O)(OCC)OCC [SR12813]
agonism at mouse PXR (mouse PXR (mPXR)): not for mouse PXR

Larazotide acetate
restoration of barrier integrity/function injured by IFN-gamma (Colon Intestine-Chip; 12.5 mM, IFN-gamma 25 ng/ml, 3 KDa Dextran Texas Red, N=5): partially restored/rescued | restore/rescue of barrier integrity (Colon Intestine-Chip; Colon Intestine-Chip exposed to AT1002, 20 mM, after 24 hours, N=5): up to 100% | increase in TJ permeability elicited by basolaterally applied cytokines (Caco-2 cell monolayers; apically applied): inhibited

CC[C@]1(O)C[C@@H]2CN(CCc3c([nH]c4ccccc34)[C@@](C(=O)OC)(c3cc4c(cc3OC)N(C)[C@H]3[C@@](O)(C(=O)OC)[C@H](OC(C)=O)[C@]5(CC)C=CCN6CC[C@]43[C@@H]65)C2)C1 [vinblastine]
increase in intracellular accumulation of rhodamine 123 (MDR1 (P-gp) [1]): 2.14 fold | increase in intracellular accumulation of rhodamine 123 (MDR1 (P-gp) [2]): 1.84 fold

CC(=O)[C@H]1[C@H](C#N)C[C@H]2[C@@H]3CC=C4C[C@@H](O)CC[C@]4(C)[C@H]3CC[C@@]21C [PCN, 5-pregnen-3β-ol-20-one-16α-carbonitrile]
agonism at human PXR (human PXR (hPXR)): poor agonist | agonism at mouse PXR (mouse PXR (mPXR)): potent mPXR agonist

Clc1ccc(-c2nc3sccn3c2C=NOCc2ccc(Cl)c(Cl)c2)cc1 [CITCO, 6-(4-chlorophenyl)imidazo[2,1-b][1,3]thiazole-5-carbaldehyde-O-(3,4-dichlorobenzyl)oxime]
agonism at mouse CAR (mouse CAR (mCAR)): not mouse CAR | agonism at human CAR (human CAR (hCAR)): strong agonist

H-FCIGRL-OH [AT1002]
injury effect on barrier (apparent permeability, 3 KDa Dextran Cascade Blue) (Colon Intestine-Chip; organoid-derived colon chip): barrier disruption in a concentration-dependent manner | lucifer yellow permeability (Caco-2 cell monolayers; Caco-2 cell monolayers): increase | transepithelial electrical resistance (TEER) (Caco-2 cell monolayers; Caco-2 cell monolayers): reversible reduction | cytotoxicity (Caco-2 cell monolayers): no overt cytotoxicity

IL-13: cytokine used to drive tuft cell differentiation
effect on Colon-Chip morphology and barrier function (Colon-Chip): no negative effect | tuft cell population (Colon-Chip): Enrichment

Cc1onc(-c2ccccc2Cl)c1C(=O)N(C)c1ccc(Cl)cc1 [GPBAR-A]
GLP-1 Concentration (fold increase) in the presence of 10 mM glucose ([3]; in the presence of 10 mM glucose): 3.5 fold increase | GLP-1 Concentration (fold increase) [3]: 2.5 fold increase

Clc1cnc(Oc2ccc(Oc3ncc(Cl)cc3Cl)cc2)c(Cl)c1 [TCPOBOP, 1,4-bis-[2-(3,5-dichloropyridyloxy)]benzene,3,3′.5.5′-tetrachloro-1,4-bis(pyridyloxy)benzene]
selectivity mCAR versus hCAR (mouse CAR (mCAR)): more selective for mCAR than hCAR

IFN-gamma: injury inducing cytokine
permeability of Colon Intestine Chip (Colon Intestine-Chip; 10 ng/ml - 50 ng/ml, 48 hours, 3 KDa Dextran Cascade Blue): increases post 48 hours independent of IFN-gamma concentrations tested

C=C1/C(=C\C=C2/CCC[C@]3(C)[C@@H]([C@H](C)CCCC(C)(C)O)CC[C@@H]23)C[C@@H](O)C[C@@H]1O [VD3, 1,25-dihidroxyvitamin D3]
CYP3A4 drug metabolism activity (CYP3A4 [4]; Duodenum Intestine-Chip): significantly increased | CYP3A4 protein levels (CYP3A4 [4]; Duodenum Intestine-Chip): significantly increased | induction of CYP3A4 expression relative to DMSO-treated controls (CYP3A4 [4]; Duodenum-Chip, average of 3 donors, 20 μM RIF or 100 nM VD3, 48 h): 4.1 fold | CYP3A4 induction (in words) (CYP3A4 [5]; Caco-2 Intestine-Chip): induced | metabolic activity of CYP3A4 (CYP3A4 [5]; Caco-2 Intestine-Chip): no effect | CYP3A4 induction (in words) (CYP3A4 [5]; Caco-2 Intestine-Chip, listed as Vitamin D3): showed induction | CYP3A4 protein level (Western Blot) (CYP3A4 [5]; Caco-2 cells after inducer treatment): below the limit of detection | enhancement of CYP3A4 mRNA level (CYP3A4 [5]; Caco-2 cells, 100 nM, 48 h): 316 fold
